The compounds below were run against IRAK4 (Homo sapiens (Human), UniProt Q9NWZ3) (assay: IRAK-4 AlphaScreen biochemical kinase assay). Settings: 1 nM IRAK4, 1 mM ATP, 3.5 h at RT.
Outline: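 AlphaScreen read-out: streptavidin beads bind the biotinylated peptide and protein A beads bind the anti-phosphothreonine antibody, so energy transfer reports phosphorylation of the peptide. The kinase is human IRAK-4.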

Chain of IRAK4 (Q9NWZ3 whole entry, species assumed): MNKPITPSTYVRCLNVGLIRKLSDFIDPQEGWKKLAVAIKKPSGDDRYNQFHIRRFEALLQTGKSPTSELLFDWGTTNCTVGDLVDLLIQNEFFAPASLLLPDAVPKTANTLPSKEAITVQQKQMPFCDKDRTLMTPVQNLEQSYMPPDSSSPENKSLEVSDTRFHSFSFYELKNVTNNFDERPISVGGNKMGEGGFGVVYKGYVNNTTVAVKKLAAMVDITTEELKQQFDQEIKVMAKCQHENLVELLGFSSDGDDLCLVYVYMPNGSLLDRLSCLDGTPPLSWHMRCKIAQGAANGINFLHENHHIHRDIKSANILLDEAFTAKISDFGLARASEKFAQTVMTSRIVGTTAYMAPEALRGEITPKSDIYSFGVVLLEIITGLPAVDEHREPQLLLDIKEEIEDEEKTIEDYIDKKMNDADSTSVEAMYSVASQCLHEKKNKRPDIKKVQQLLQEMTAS

First: FC(F)(F)c1cccc(-n2ncc3ccc(-c4cccc(C5CCCN5)n4)cc32)n1 (stereo not drawn) [Example 97, 6-(6-(pyrrolidin-2-yl)pyridin-2-yl)-1-(6-(trifluoromethyl)pyridin-2-yl)-1H-indazole]
Second: NCc1cccc(-c2ccc3cnn(-c4cccc(C(F)(F)F)n4)c3c2)n1 [Example 48, (6-(1-(6-(trifluoromethyl)pyridin-2-yl)-1H-indazol-6-yl)pyridin-2-yl)methanamine]
The IC50 of the first is higher: 100 to 1000 nM for the first, < 100 nM for the second. The second is the more potent here.

First: Cc1cccc(-n2ncc3ccc(-c4ccc5c(n4)C(N)CCCC5)cc32)n1 (stereo not drawn) [Example 308, 2-(1-(6-methylpyridin-2-yl)-1H-indazol-6-yl)-6,7,8,9-tetrahydro-5H-cyclohepta[b]pyridin-9-amine]
Second: Cc1cccc(-n2ncc3ccc(-c4cccc([C@H](C)N)n4)cc32)n1 [Example 142, (S)-1-(6-(1-(6-methylpyridin-2-yl)-1H-indazol-6-yl)pyridin-2-yl)ethanamine]
The IC50 of the first is higher: 100 to 1000 nM for the first, < 100 nM for the second.

`CC[C@H](N)c1cccc(-c2cc(OCCCO)c3cnn(-c4cccc(CO)n4)c3c2)n1` [Example 461, (S)-3-((6-(6-(1-aminopropyl)pyridin-2-yl)-1-(6-(hydroxymethyl)pyridin-2-yl)-1H-indazol-4-yl)oxy)propan-1-ol] and `CC#CC[C@H](N)c1cccc(-c2cc(OCC)c3cnn(-c4cccc(CO)n4)c3c2)n1` [Example 441, (S)-(6-(6-(6-(1-aminopent-3-yn-1-yl)pyridin-2-yl)-4-ethoxy-1H-indazol-1-yl)pyridin-2-yl)methanol] cannot be ordered by IC50: < 100 nM for the first, < 100 nM for the second.

`CC(N)c1cccc(-c2ccc3cnn(-c4cccc(C(C)O)n4)c3c2)n1` (stereo not drawn) [Example 284, 1-(6-(6-(6-(1-aminoethyl)pyridin-2-yl)-1H-indazol-1-yl)pyridin-2-yl)ethanol] and `Cc1cccc(-n2ncc3ccc(-c4cccc([C@@H](C)N)n4)cc32)n1` [Example 141, (R)-1-(6-(1-(6-methylpyridin-2-yl)-1H-indazol-6-yl)pyridin-2-yl)ethanamine] cannot be ordered by IC50: < 100 nM for the first, < 100 nM for the second.

First: N#CCc1cccc(-n2ncc3ccc(-c4cncc(N)c4)cc32)n1 [Example 81, 2-(6-(6-(5-aminopyridin-3-yl)-1H-indazol-1-yl)pyridin-2-yl)acetonitrile]
Second: CC(O)CNC(=O)c1cccc(-n2ncc3ccc(-c4cncc(N)c4)cc32)n1 (stereo not drawn) [Example 67, 6-(6-(5-aminopyridin-3-yl)-1H-indazol-1-yl)-N-(2-hydroxypropyl)picolinamide]
The IC50 of the first is lower: 100 to 1000 nM for the first, 1000 to 10000 nM for the second. The first is the more potent here.

`N#CCC[C@H](N)c1cccc(-c2ccc3cnn(-c4cccc(CO)n4)c3c2)n1` [Example 592, (S)-4-amino-4-(6-(1-(6-(hydroxymethyl)pyridin-2-yl)-1H-indazol-6-yl)pyridin-2-yl)butanenitrile] and `CC(N)c1cccc(-c2ccc3cnn(-c4cccc(CO)n4)c3c2)n1` (stereo not drawn) [Example 123, (6-(6-(6-(1-aminoethyl)pyridin-2-yl)-1H-indazol-1-yl)pyridin-2-yl)methanol] cannot be ordered by IC50: < 100 nM for the first, < 100 nM for the second.

First: CC(=O)NCc1cc(-c2cccc(C(C)N)n2)cc2nn(-c3cccc(C)n3)cc12 (stereo not drawn) [Example 217, N-((6-(6-(1-aminoethyl)pyridin-2-yl)-2-(6-methylpyridin-2-yl)-2H-indazol-4-yl)methyl)acetamide]
Second: CC(=O)NCc1cc(-c2cccc(C(C)N)n2)cc2c1cnn2-c1cccc(C)n1 (stereo not drawn) [Example 105, N-((6-(6-(1-aminoethyl)pyridin-2-yl)-1-(6-methylpyridin-2-yl)-1H-indazol-4-yl)methyl)acetamide]
The IC50 of the first is higher: 1000 to 10000 nM for the first, 100 to 1000 nM for the second.

Compared with `Cc1cnc(-n2ncc3ccc(-c4cccc(C(C)N)n4)cc32)s1` (stereo not drawn) [Example 135, 1-(6-(1-(5-methylthiazol-2-yl)-1H-indazol-6-yl)pyridin-2-yl)ethanamine], `CCCc1cccc(-n2ncc3ccc(-c4cccc(C(C)N)n4)cc32)n1` (stereo not drawn) [Example 283, 1-(6-(1-(6-propylpyridin-2-yl)-1H-indazol-6-yl)pyridin-2-yl)ethanamine] is lower in IC50: 100 to 1000 nM for the first, < 100 nM for the second.

Compared with `Cc1cccc(-n2ncc3c(-c4nccs4)cc(-c4cccc(C(C)N)n4)cc32)n1` (stereo not drawn) [Example 303, 1-(6-(1-(6-methylpyridin-2-yl)-4-(thiazol-2-yl)-1H-indazol-6-yl)pyridin-2-yl)ethanamine], `Cc1cccc(-n2ncc3c(C(=O)O)cc(-c4cccc(C(C)N)n4)cc32)n1` (stereo not drawn) [Example 113, 6-(6-(1-aminoethyl)pyridin-2-yl)-1-(6-methylpyridin-2-yl)-1H-indazole-4-carboxylic acid] is higher in IC50: < 100 nM for the first, 100 to 1000 nM for the second.

`CCC(N)c1cccc(-c2ccc3cnn(-c4cccc(C(F)(F)F)n4)c3c2)n1` (stereo not drawn) [Example 127, 1-(6-(1-(6-(trifluoromethyl)pyridin-2-yl)-1H-indazol-6-yl)pyridin-2-yl)propan-1-amine] and `Cc1cccc(-n2ncc3ccc(-c4cccc(C(N)CCO)n4)cc32)n1` (stereo not drawn) [Example 247, 3-amino-3-(6-(1-(6-methylpyridin-2-yl)-1H-indazol-6-yl)pyridin-2-yl)propan-1-ol] cannot be ordered by IC50: < 100 nM for the first, < 100 nM for the second.

First: CC(N)c1cccc(-c2ccc3cnn(-c4cccc(CO)n4)c3c2)c1 (stereo not drawn) [Example 563, (6-(6-(3-(1-aminoethyl)phenyl)-1H-indazol-1-yl)pyridin-2-yl)methanol]
Second: N#Cc1cccc(-n2ncc3ccc(-c4cccc(N)c4)cc32)n1 [Example 22, 6-(6-(3-aminophenyl)-1H-indazol-1-yl)picolinonitrile]
The IC50 of the first is higher: 100 to 1000 nM for the first, < 100 nM for the second. The second is the more potent here.

Compared with `N#Cc1cncc(-c2ccc3cnn(-c4cccc(C(F)(F)F)n4)c3c2)n1` [Example 92, 6-(1-(6-(trifluoromethyl)pyridin-2-yl)-1H-indazol-6-yl)pyrazine-2-carbonitrile], `Nc1cncc(-c2ccc3cnn(-c4cccc(C(F)(F)F)n4)c3c2)n1` [Example 96, 6-(1-(6-(trifluoromethyl)pyridin-2-yl)-1H-indazol-6-yl)pyrazin-2-amine] is lower in IC50: 1000 to 10000 nM for the first, 100 to 1000 nM for the second.

`Nc1cccc(-c2ccc3cnn(-c4ccccn4)c3c2)c1` [Example 21, 3-(1-(pyridin-2-yl)-1H-indazol-6-yl)aniline] and `Cc1cccc(-n2ncc3ccc(-c4cncc(N(C)C)c4)cc32)n1` [Example 202, N,N-dimethyl-5-(1-(6-methylpyridin-2-yl)-1H-indazol-6-yl)pyridin-3-amine] fall in the same range of IC50: 100 to 1000 nM for the first, 100 to 1000 nM for the second.

Compared with `Cc1cccc(-n2ncc3ccc(-c4cn(C)c(C(C)N)n4)cc32)n1` (stereo not drawn) [Example 305, 1-(1-methyl-4-(1-(6-methylpyridin-2-yl)-1H-indazol-6-yl)-1H-imidazol-2-yl)ethanamine], `Cc1cc(-c2ccc3cnn(-c4cccc(C)n4)c3c2)nc(C(C)N)c1` (stereo not drawn) [Example 124, 1-(4-methyl-6-(1-(6-methylpyridin-2-yl)-1H-indazol-6-yl)pyridin-2-yl)ethanamine] is lower in IC50: 100 to 1000 nM for the first, < 100 nM for the second.

First: CC(=O)NCc1cccc(-c2ccc3cnn(-c4cccc(C)n4)c3c2)n1 [Example 253, N-((6-(1-(6-methylpyridin-2-yl)-1H-indazol-6-yl)pyridin-2-yl)methyl)acetamide]
Second: Cc1cccc(-n2ncc3ccc(-c4cccc(CN)n4)cc32)n1 [Example 4, (6-(1-(6-methylpyridin-2-yl)-1H-indazol-6-yl)pyridin-2-yl)methanamine]
The IC50 of the first is higher: 1000 to 10000 nM for the first, 100 to 1000 nM for the second. The second is the more potent here.

`NCc1cncc(-c2ccc3cnn(-c4cccc(C(F)(F)F)n4)c3c2)n1` [Example 93, (6-(1-(6-(trifluoromethyl)pyridin-2-yl)-1H-indazol-6-yl)pyrazin-2-yl)methanamine] and `Nc1cc(-c2ccc3cnn(-c4cccc(C(F)(F)F)n4)c3c2)cc(C(=O)O)n1` [Example 213, 6-amino-4-(1-(6-(trifluoromethyl)pyridin-2-yl)-1H-indazol-6-yl)picolinic acid] fall in the same range of IC50: 1000 to 10000 nM for the first, 1000 to 10000 nM for the second.

`Cc1cccc(-n2ncc3ccc(-c4cncc(N)c4O)cc32)n1` [Example 12, 3-amino-5-(1-(6-methylpyridin-2-yl)-1H-indazol-6-yl)pyridin-4-ol] and `Cc1cccc(-n2ncc3ccc(-c4cccc5c4CCN(C)C5)cc32)n1` [Example 16, 2-methyl-5-(1-(6-methylpyridin-2-yl)-1H-indazol-6-yl)-1,2,3,4-tetrahydroisoquinoline] fall in the same range of IC50: 1000 to 10000 nM for the first, 1000 to 10000 nM for the second.

`CCC[C@H](N)c1ccnc(-c2cc(OC)c3cnn(-c4cccc(CO)n4)c3c2)n1` [Example 574, (S)-(6-(6-(4-(1-aminobutyl)pyrimidin-2-yl)-4-methoxy-1H-indazol-1-yl)pyridin-2-yl)methanol] and `CCC[C@H](N)c1ccnc(-c2cc(OCC)c3cnn(-c4cccc(CO)n4)c3c2)n1` [Example 583, (S)-(6-(6-(4-(1-aminobutyl)pyrimidin-2-yl)-4-ethoxy-1H-indazol-1-yl)pyridin-2-yl)methanol] cannot be ordered by IC50: < 100 nM for the first, < 100 nM for the second.

First: CCCC1(N)CCCc2ccc(-c3ccc4cnn(-c5cccc(CO)n5)c4c3)nc21 (stereo not drawn) [Example 421, (6-(6-(8-amino-8-propyl-5,6,7,8-tetrahydroquinolin-2-yl)-1H-indazol-1-yl)pyridin-2-yl)methanol]
Second: C[C@H](N)c1cccc(-c2ccc3cnn(-c4nc(CO)ccc4F)c3c2)n1 [Example 565, (S)-(6-(6-(6-(1-aminoethyl)pyridin-2-yl)-1H-indazol-1-yl)-5-fluoropyridin-2-yl)methanol]
The IC50 of the first is lower: < 100 nM for the first, 100 to 1000 nM for the second.

First: NCc1cc(-c2cncc(N)c2)cc2c1cnn2-c1cccc(C(F)(F)F)n1 [Example 53, 5-(4-(aminomethyl)-1-(6-(trifluoromethyl)pyridin-2-yl)-1H-indazol-6-yl)pyridin-3-amine]
Second: Nc1cc(C(=O)O)cc(-c2ccc3cnn(-c4cccc(C(F)(F)F)n4)c3c2)c1 [Example 85, 3-amino-5-(1-(6-(trifluoromethyl)pyridin-2-yl)-1H-indazol-6-yl)benzoic Acid]
The IC50 of the first is higher: 100 to 1000 nM for the first, < 100 nM for the second.

First: Cc1cccc(-n2ncc3ccc(-c4cccc(C(N)CC(=O)O)n4)cc32)n1 (stereo not drawn) [Example 260, 3-amino-3-(6-(1-(6-methylpyridin-2-yl)-1H-indazol-6-yl)pyridin-2-yl)propanoic acid]
Second: CC(N)c1cccc(-c2cc(Cl)c3cnc(-c4cccc(C(F)(F)F)n4)n3c2)n1 (stereo not drawn) [Example 311, 1-(6-(8-chloro-3-(6-(trifluoromethyl)pyridin-2-yl)imidazo[1,5-a]pyridin-6-yl)pyridin-2-yl)ethanamine]
The IC50 of the first is higher: 100 to 1000 nM for the first, < 100 nM for the second.
